{"source": "patent US20170281611A1", "about": "“QUINOLINES AND THEIR USE FOR TREATING ENDOPLASMIC RETICULUM STRESS-CAUSED DISEASES” (EIGER BIOPHARMACEUTICALS, INC., priority 2014, published 2017)", "key": {"ob/ob mice [1]": {"tested_on": "ob/ob mice", "assay": "Effect of a SERCA agonist on the level of blood glucose", "assay_type": "in vivo, mouse", "settings": "10 or 50 mg/kg i.p. once a day for 5 days", "protocol": "Fasting glucose was measured at baseline and 10 hours after the administration of the test compound. Glucose levels were measured in blood samples drawn from the tail vein using the OneTouch Ultra 2 Meter (LifeScan, Inc.)."}, "[2]": {"assay": "Pharmacokinetics of compound A12 in Sprague Dawley rats", "assay_type": "in vivo, rat", "settings": "oral, 2 mg/kg P.O.", "protocol": "Pharmacokinetics of a test compound, compound A12, was assessed in Sprague Dawley rats. The compound was formulated at 1 mg/mL in DMSO/Tween 80/water (10/10/80, vol/vol/vol) and dosed at 1 mg/kg intravenous (i.v.) or 2 mg/kg by oral gavage (P.O.) in triplicate. Blood was drawn at 5 min, 15 min, 30 min, 1 hr, 2 hrs, 4 hrs, 6 hrs, and 8 hrs into EDTA containing tubes and plasma was harvested by centrifugation. Plasma (25 μL) was treated with acetonitrile (125 μL) containing an internal standard. The sample was then centrifuged for 5 min at 4,000 rpm in a tabletop centrifuge and the filtrate was collected. The filtrate was injected onto a Thermo Betasil C18 HPLC column 5μ (50×2.1 mm). Mobile Phase A was water with 0.1% formic acid. Mobile Phase B was acetonitrile with 0.1% formic acid. Separation was achieved using a gradient of 90% A/10% B to 5% A/95% B over 7 min. An API Sciex 4000 equipped with a turbo ion spray source was used for all analytical measurements. A positive ion MRM method was developed. Peak areas of the product ion were measured against the peak areas of the internal standard. Data was fit using WinNonLin (Pharsight Corporation, Mountain View, Calif.)."}, "[3]": {"tested_on": "6-OHDA lesioned Wistar rats", "assay": "Rat unilateral 6-OHDA model of Parkinson's disease, initiation time (IT) test", "assay_type": "in vivo", "settings": "D11, 10 mg/kg IP once daily for 15 days, t test, vs 6-OHDA/Vehicle", "protocol": "Fifty adult male Wistar rats were used. The rats from different groups (G1 to G5) were randomized. At the beginning of the study, the rats were about 5 weeks old and naive to previous administration of any drug.\nA stereotaxic injection of 6-OHDA (G2 to G5) or saline (G1: sham group) was performed to induce a unilateral dopaminergic lesion on day 0 (D0). Surgery was performed on D0 under ketamine (50 mg/kg) and xylazine (10 mg/kg). The rats of G2 to G5 received a unilateral injection of 6-OHDA (6 μL) in the left substantia nigra pars compacta. Jouve et al., J. Neurosci. 2010, 30, 9919-9928. The rats of the G1 sham group were injected with saline. During surgery, local analgesia was achieved using subcutaneous injections of lidocaine. At the end of surgery, the rats were treated with buprenorphine (0.05 mg/kg, S.C.).\nThe IT test was performed both before the 6-OHDA lesion induction on D0 and on day 11 (D11) after the 6-OHDA lesion induction. Around six days (D−6) before the 6-OHDA lesion induction, the IT test was performed eight consecutive times for each limb of each rat to obtain baseline values. On D11, the IT test was performed one hour after the rats were dosed. For every test, only one of the two forelimbs of each rat was left free to move and the time that is necessary to initiate the movement toward a plane surface was recorded using 180 sec as break-off point. […]"}, "[4]": {"tested_on": "HeLa cells overexpressing BI-1", "assay": "Effect on [Ca2+]ER, ER cameleon in HeLa cells overexpressing BI-1", "assay_type": "cell-based", "settings": "HeLa cells overexpressing BI-1, treated 24 hrs", "protocol": "To directly measure ER Ca^2+ content, a genetically encoded Ca^2+ indicator, ER cameleon, was used. HeLa cells were transfected with ER-cameleon encoding plasmid for 2 days before analysis. Cells were treated with a test compound for 24 hrs and imaged in Ca^2+-free HBSS upon addition of thapsigargin to deplete ER stores. Emission ratio imaging of the ER cameleon was accomplished using a 430/24 excitation filter, 450-nm dichroic mirror, and two emission filters (475/40 for CFP and 535/25 for YFP). The fluorescence ratio of YFP/CFP is a measure of relative ER Ca^2+ levels."}, "APP-PS1 mice": {"tested_on": "APP-PS1 mice", "assay": "Alzheimer's disease model, Aβ deposition (Thioflavin S staining)", "assay_type": "in vivo, mouse", "settings": "10 mg/kg ip for 4 weeks, vs saline", "protocol": "PS1/APP mice (PS1M146V and APPSWE) (Howlett et al., Brain Res. 2004, 1017, 130-136) were used. Age-matched NTg controls were on the same background strain (C57bl6/J9).\nMice were transcardially perfused with ice-cold PBS (3 mL) followed by 4% paraformaldehyde (5 mL). Brains were extracted and fixed overnight in 30% sucrose-cryoprotectant solution. Coronal hippocampal sections 40 μm thick were cut on a cryostat and collected in TBS (0.1 M Tris, 0.9% saline, pH 7.4).\nFree-floating hippocampal sections were washed with TBS (4×3 min). The sections were soaked in 0.5% thioflavin S (in 50/50 ethyl alcohol/distilled water, Sigma-Aldrich) for 10 min, followed by 2×3 min washes with 50% ethyl alcohol. Sections were washed again with TBS (2×3 min), mounted with minimal drying, and coverslipped with anti-fade mounting medium PVA-DABCO for microscopy.\nConfocal images of immunolabeled tissue were obtained using 4× and 10× objective lenses on the Olympus Fluoview confocal microscope. Density of amyloid plaques was quantified by averaging the percent area staining positive (thresholded above background staining, as determined by software parameters and experimenter confirmation) within the hippocampus and cortex from 3-5 sections from each experimental animal using MetaMorph Software (Molecular Devices). […]"}, "ob/ob mice [5]": {"tested_on": "ob/ob mice", "assay": "Glucose tolerance test (GTT)", "assay_type": "in vivo, mouse", "settings": "day 7 post-injection, compared with vehicle", "protocol": "Both glucose (GTT) and insulin (ITT) tolerance tests were performed following a 10-hr fast and an additional 2-hr after CDNs injection with baseline blood glucose measurement taken before the beginning of the test. For the GTT, D-glucose dissolved in 0.9% NaCl was delivered intraperitoneally at a dose of 1 g/kg. The blood glucose level was measured 0, 15, 30, 60, 90, and 120 min after glucose administration. For the ITT, insulin was administered intraperitoneally at a dose of 1 IU/kg. The blood glucose level was measured 0, 15, 30, 60, 90, and 120 min after insulin administration. Glucose levels were measured in blood samples drawn from the tail vein using OneTouch Ultra 2 Meter (LifeScan, Inc.)."}}}
{"smiles": "Cc1ccc2cccc(NC(=O)c3ccc(OC(C)C)cc3)c2n1", "note": "[Compound A12, 4-Isopropoxy-N-(2-methylquinolin-8-yl)benzamide]", "values": [{"measurement": "fasting blood glucose", "setting": "ob/ob mice [1]", "value": "significantly lowered blood glucose as early as day 2"}, {"measurement": "maintenance of lower glucose level after last injection", "setting": "ob/ob mice [1]", "value": "maintained a lower glucose level, to a level identical to lean mice, for over a week after the last injection"}, {"measurement": "T112", "setting": "[2]", "value": 1.17, "unit": "h"}, {"measurement": "akinesia measured in the IT test", "setting": "[3]", "value": "statistically significant improvement"}, {"measurement": "[Ca2+]ER", "setting": "[4]", "value": "significantly restored"}, {"measurement": "amyloid plaques stained with Thioflavin S", "setting": "APP-PS1 mice", "value": "reduced"}, {"measurement": "hyperglycemic response to the i.p. glucose challenge (GTT)", "setting": "ob/ob mice [5]", "value": "significantly reduced"}]}
